Source: ChEMBL document CHEMBL1681705, “Optimisation of ITK inhibitors through successive iterative design cycles” (Bioorg Med Chem Lett, 2011)

How the values were obtained:
cells = details: Homo sapiens, T-cell
Description: Antiinflammatory activity in human CD4+ T cell assessed as inhibition of anti-CD3/anti-CD28-induced IL-2 production treated 30 mins before anti-CD3/anti-CD28 challenge measured after 48 hrs by electro-chemiluminescence assay

[1] = molecular target: T1, Tyrosine-protein kinase ITK/TSK (Homo sapiens, UniProt Q08881); assay: Inhibition of recombinant GST-tagged full-length ITK expressed in baculovirus expression system after 30 mins by scintillation proximity assay
T1 sequence (Q08881 whole entry): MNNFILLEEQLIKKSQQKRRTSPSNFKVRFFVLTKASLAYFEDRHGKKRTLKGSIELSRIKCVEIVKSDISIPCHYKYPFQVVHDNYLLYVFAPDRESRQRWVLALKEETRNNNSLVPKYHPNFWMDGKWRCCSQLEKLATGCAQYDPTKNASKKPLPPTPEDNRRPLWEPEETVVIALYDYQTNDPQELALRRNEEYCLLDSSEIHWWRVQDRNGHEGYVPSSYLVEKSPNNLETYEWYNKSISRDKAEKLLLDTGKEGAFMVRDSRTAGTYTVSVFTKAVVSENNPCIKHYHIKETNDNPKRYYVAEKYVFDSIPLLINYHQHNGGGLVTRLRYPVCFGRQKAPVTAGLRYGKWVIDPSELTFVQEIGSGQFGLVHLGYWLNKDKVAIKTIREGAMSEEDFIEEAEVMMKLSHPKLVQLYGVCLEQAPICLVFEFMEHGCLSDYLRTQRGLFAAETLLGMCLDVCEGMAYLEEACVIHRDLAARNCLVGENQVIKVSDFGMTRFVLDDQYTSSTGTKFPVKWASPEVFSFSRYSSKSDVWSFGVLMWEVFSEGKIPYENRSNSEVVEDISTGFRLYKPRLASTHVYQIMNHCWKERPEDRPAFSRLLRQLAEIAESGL

SMILES	IC50 (cells) [µM]	IC50 [1] [µM]
CCN(CC)C(=O)c1ccc2cc(-c3n[nH]c4ccccc34)[nH]c2c1	2.1	–
Cc1ccc2cc(-c3n[nH]c4ccc(NC(=O)NCc5ccco5)cc34)[nH]c2c1	–	0.31
CC(=O)N1CCC(Nc2ccc3[nH]nc(-c4cc5ccc(C)cc5[nH]4)c3c2)CC1	–	0.37
Cc1ccc2cc(-c3n[nH]c4ccc(NC5CCN(C)CC5)cc34)[nH]c2c1	0.12	–
COc1cccc(S(=O)(=O)Nc2ccc3[nH]nc(-c4cc5ccc(C)cc5[nH]4)c3c2)c1	0.9	–
Cc1ccc2cc(-c3n[nH]c4ccc(NC5CCNCC5)cc34)[nH]c2c1	0.09	–
Cc1ccc2cc(-c3n[nH]c4ccc(NC(=O)Nc5c(C)noc5C)cc34)[nH]c2c1	0.3	0.072
Cc1ccc2cc(-c3n[nH]c4ccc(NS(C)(=O)=O)cc34)[nH]c2c1	0.4	0.036
COCCc1ccc2cc(-c3n[nH]c4cccnc34)[nH]c2c1	0.6	0.07
c1ccc2c(-c3cc4ccc(NCC5CCCCC5)cc4[nH]3)n[nH]c2c1	3.8	–
O=C(NCC1CCCCC1)c1ccc2cc(-c3n[nH]c4ccccc34)[nH]c2c1	9.5	–
c1ccc(Cc2ccc3cc(-c4n[nH]c5cccnc45)[nH]c3c2)cc1	–	0.21
CC(=O)Nc1ccc2[nH]nc(-c3cc4ccc(C)cc4[nH]3)c2c1	1	–
CN(C)CCc1ccc2cc(-c3n[nH]c4cccnc34)[nH]c2c1	–	1
Cc1ccc2cc(-c3n[nH]c4ccc(NC5CCC5)cc34)[nH]c2c1	–	0.62
COCC#Cc1ccc2cc(-c3n[nH]c4cccnc34)[nH]c2c1	–	0.28
Cc1ccc2cc(-c3n[nH]c4cc(NC(=O)C5CCCCC5)ccc34)[nH]c2c1	–	> 50
Cc1ccc2cc(-c3n[nH]c4ccc(NS(=O)(=O)c5c(C)noc5C)cc34)[nH]c2c1	0.5	0.13
Cc1ccc2cc(-c3n[nH]c4ccc(NS(=O)(=O)c5sc(C)nc5C)cc34)[nH]c2c1	2	0.19
CN(C)CC#Cc1ccc2cc(-c3n[nH]c4cccnc34)[nH]c2c1	–	0.11
CN(c1ccccc1)c1ccc2cc(-c3n[nH]c4ccccc34)[nH]c2c1	–	0.31
Cc1ccc2cc(-c3n[nH]c4ccc(NS(=O)(=O)c5ccc(F)cc5)cc34)[nH]c2c1	2.9	–
CN(Cc1ccco1)C(=O)c1ccc2cc(-c3n[nH]c4ccccc34)[nH]c2c1	–	0.11
Cc1ccc2cc(-c3n[nH]c4ccc(NCc5ccccc5)cc34)[nH]c2c1	–	0.53
Cc1ccc2cc(-c3n[nH]c4ccc(NS(=O)(=O)c5cccc(F)c5)cc34)[nH]c2c1	0.8	–
COCC(=O)Nc1ccc2[nH]nc(-c3cc4ccc(OC)cc4[nH]3)c2c1	0.5	–
O=C(NCc1ccccc1)c1ccc2cc(-c3n[nH]c4ccccc34)[nH]c2c1	4.1	–

SMILES	IC50 (cells) [µM]	IC50 [1] [µM]
Cc1ccc2cc(-c3n[nH]c4ccc(NS(=O)(=O)c5c(C)nn(C)c5C)cc34)[nH]c2c1	1	0.085
Cc1ccc2cc(-c3n[nH]c4cc(NC(=O)c5ccccc5)ccc34)[nH]c2c1	–	> 50
Cc1ccc2cc(-c3n[nH]c4ccc(NC(=O)CN(C)C)cc34)[nH]c2c1	0.6	–
COCCN(C)C(=O)c1ccc2cc(-c3n[nH]c4ccccc34)[nH]c2c1	2	0.07
Cc1ccc2cc(-c3n[nH]c4ccc(NS(=O)(=O)c5cn(C)cn5)cc34)[nH]c2c1	0.4	0.026
NC(=O)Cc1ccc2cc(-c3n[nH]c4cccnc34)[nH]c2c1	1	0.1
Cn1cncc1CNC(=O)c1ccc2cc(-c3n[nH]c4ccccc34)[nH]c2c1	–	0.02
Cc1ccc2cc(-c3n[nH]c4ccc(NCC5CCCCC5)cc34)[nH]c2c1	–	1.7
Cc1ccc2cc(-c3n[nH]c4ccc(NC(=O)Nc5ccccc5)cc34)[nH]c2c1	–	0.73
c1ccc2c(-c3cc4ccc(N5CCOCC5)cc4[nH]3)n[nH]c2c1	1.2	0.12
CCNC(=O)Nc1ccc2[nH]nc(-c3cc4ccc(C)cc4[nH]3)c2c1	0.6	0.083
Cc1ccc2cc(-c3n[nH]c4ccc(NC(=O)NC5CCCCC5)cc34)[nH]c2c1	3.2	0.78
Cc1ccc2cc(-c3n[nH]c4ccc(NS(=O)(=O)c5ccccc5)cc34)[nH]c2c1	0.4	–
Cc1ccc2cc(-c3n[nH]c4ccc(NC5CCN(Cc6ccccc6)C5)cc34)[nH]c2c1 (stereo not given)	0.35	0.03
Cc1ccc2cc(-c3n[nH]c4ccc(NC(=O)NCc5ccccc5)cc34)[nH]c2c1	–	0.75
CC(C)CN(C)C(=O)c1ccc2cc(-c3n[nH]c4ccccc34)[nH]c2c1	1.6	–
c1cnc2c(-c3cc4ccc(CC5CCC5)cc4[nH]3)n[nH]c2c1	–	0.35
Cc1ccc2cc(-c3n[nH]c4ccc(NCC(C)C)cc34)[nH]c2c1	–	0.86
C(#Cc1ccc2cc(-c3n[nH]c4cccnc34)[nH]c2c1)CCc1cccnc1	–	0.5
c1cnc2c(-c3cc4ccc(CC5CCCCC5)cc4[nH]3)n[nH]c2c1	–	0.69
Cc1ccc2cc(-c3n[nH]c4ccc(NC(=O)c5ccco5)cc34)[nH]c2c1	–	0.53
COc1ccc(S(=O)(=O)Nc2ccc3[nH]nc(-c4cc5ccc(C)cc5[nH]4)c3c2)cc1	0.7	–
CN(Cc1ccccc1)C(=O)c1ccc2cc(-c3n[nH]c4ccccc34)[nH]c2c1	9.4	0.06
COCCNc1ccc2cc(-c3n[nH]c4ccccc34)[nH]c2c1	1.2	0.26
CCC(=O)Cc1ccc2cc(-c3n[nH]c4cccnc34)[nH]c2c1	1.1	0.1
Cc1ccc2cc(-c3n[nH]c4ccc(NC(=O)C5CCOCC5)cc34)[nH]c2c1	–	0.26
Cc1ccc2cc(-c3n[nH]c4ccc(NS(=O)(=O)c5ccccc5F)cc34)[nH]c2c1	1	–
